ChEMBL document CHEMBL1201862, “PubChem BioAssay data set” (2004)
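These data come from cells grown in 96-well plates and exposed to compound for 48 hours at five concentrations. GI50 is the concentration that inhibits growth by half.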 Activity calls are given as the source filed them. No stated cut-off is given here; in the data, active = GI50 up to about 1.1 µM and inactive = higher.

Key:
Test in all cases: NCI-60 cell line screen, 48 h
SNB-19 = test system: SNB-19
HL-60 = test system: HL-60
SK-MEL-5 = test system: SK-MEL-5
SNB-75 = test system: SNB-75
A549 = test system: A549
EKVX = test system: EKVX
SF-539 = test system: SF-539
A498 = test system: A498
RXF 393 = test system: RXF 393
HCT-15 = test system: HCT-15
KM-20L2 = test system: KM-20L2
IGROV-1 = test system: IGROV-1
SN12C = test system: SN12C
COLO 205 = test system: COLO 205
HCC 2998 = test system: HCC 2998
OVCAR-5 = test system: OVCAR-5
Hs-578T = test system: Hs-578T
PC-3 = test system: PC-3
MDA-N = test system: MDA-N
NCI/ADR-RES = test system: NCI/ADR-RES

| SMILES | GI50 (SNB-19) | GI50 (HL-60) | GI50 (SK-MEL-5) | GI50 (SNB-75) | GI50 (A549) | GI50 (EKVX) | GI50 (SF-539) | GI50 (A498) | GI50 (RXF 393) | GI50 (HCT-15) [µM] | GI50 (KM-20L2) | GI50 (IGROV-1) | GI50 (SN12C) | GI50 (COLO 205) | GI50 (HCC 2998) | GI50 (OVCAR-5) | GI50 (Hs-578T) | GI50 (PC-3) | GI50 (MDA-N) | GI50 (NCI/ADR-RES) |
| --- | --- | --- | --- | --- | --- | --- | --- | --- | --- | --- | --- | --- | --- | --- | --- | --- | --- | --- | --- | --- |
| CCc1nc2c(O)ccc(O)c2nc1C | 18.9 µM (inactive) | 2.93 µM (inactive) | 17.5 µM (inactive) | 20.8 µM (inactive) | 21.8 µM (inactive) | 17.3 µM (inactive) | 17 µM (inactive) | 20.9 µM (inactive) | 11.5 µM (inactive) | 16.4 | 18.6 µM (inactive) | 19 µM (inactive) | 16 µM (inactive) | 2.53 µM (inactive) | 24.6 µM (inactive) | 19.3 µM (inactive) | – | – | – | – |
| Cc1cc(NCCCCCCCCNc2cc(C)nc3cc(N)ccc23)c2ccc(N)cc2n1 | 14.1 µM (inactive) | 0.566 µM (active) | 10.9 µM (inactive) | 16.4 µM (inactive) | 18.3 µM (inactive) | 22.2 µM (inactive) | 17 µM (inactive) | 39.6 µM (inactive) | 27.7 µM (inactive) | 41.5 | 19 µM (inactive) | – | 15.8 µM (inactive) | 6.4 µM (inactive) | 15.1 µM (inactive) | 22.5 µM (inactive) | – | – | – | – |
| Nc1nc2c(ncn2C2CCC(CO)O2)c(=O)n1C(=O)c1ccccc1 (stereo not drawn) | > 100 µM (inactive) | > 100 µM (inactive) | > 100 µM (inactive) | > 74.5 µM (inactive) | > 100 µM (inactive) | > 100 µM (inactive) | > 100 µM (inactive) | > 100 µM (inactive) | > 100 µM (inactive) | > 100 | > 100 µM (inactive) | > 100 µM (inactive) | > 100 µM (inactive) | > 100 µM (inactive) | > 100 µM (inactive) | > 100 µM (inactive) | > 100 µM (inactive) | > 100 µM (inactive) | > 100 µM (inactive) | > 100 µM (inactive) |
| C#CCNC(=O)NC(CCCCNC(=O)OCc1ccccc1)C(=O)OCc1ccccc1 (stereo not drawn) | > 100 µM (inactive) | 16 µM (inactive) | 18.3 µM (inactive) | 16.2 µM (inactive) | > 77.6 µM (inactive) | > 100 µM (inactive) | 38.9 µM (inactive) | 21.9 µM (inactive) | 10.8 µM (inactive) | > 100 | > 100 µM (inactive) | > 100 µM (inactive) | 37.4 µM (inactive) | 21.7 µM (inactive) | 31.5 µM (inactive) | > 100 µM (inactive) | > 100 µM (inactive) | > 67 µM (inactive) | 32.9 µM (inactive) | > 100 µM (inactive) |
| CC1=C(/C=C/C(C)=C/C=C/C(C)=C/C(=O)O)C(C)(C)CCC1 [TRETINOIN] | 47.5 µM (inactive) | 18 µM (inactive) | 47.8 µM (inactive) | > 61.9 µM (inactive) | 39.9 µM (inactive) | > 100 µM (inactive) | 48.6 µM (inactive) | > 74.5 µM (inactive) | > 68.1 µM (inactive) | 48.2 | > 100 µM (inactive) | > 78.9 µM (inactive) | 52 µM (inactive) | 49.3 µM (inactive) | 51.6 µM (inactive) | > 68.5 µM (inactive) | > 43 µM (inactive) | 39.6 µM (inactive) | 45.8 µM (inactive) | 37.3 µM (inactive) |
| CC(C)(Br)C(=O)C(Br)Br | 19.7 µM (inactive) | 1.9 µM (inactive) | 12.4 µM (inactive) | 13.7 µM (inactive) | 16.6 µM (inactive) | 13.8 µM (inactive) | > 33.2 µM (inactive) | > 39.8 µM (inactive) | 3.16 µM (inactive) | – | 18 µM (inactive) | 8.22 µM (inactive) | > 24.4 µM (inactive) | 2.74 µM (inactive) | 17.1 µM (inactive) | 16.8 µM (inactive) | 6.89 µM (inactive) | 5.4 µM (inactive) | 5.3 µM (inactive) | 4.82 µM (inactive) |
| Fc1ccc(C2SCc3nc4ccccc4n32)c(F)c1 (stereo not drawn) | > 100 µM (inactive) | 22 µM (inactive) | 32.1 µM (inactive) | > 100 µM (inactive) | 83.8 µM (inactive) | > 100 µM (inactive) | > 100 µM (inactive) | > 100 µM (inactive) | 98.4 µM (inactive) | 49.4 | > 100 µM (inactive) | > 100 µM (inactive) | > 100 µM (inactive) | > 100 µM (inactive) | 98.6 µM (inactive) | 67.6 µM (inactive) | – | – | – | – |
| CC(C(=O)c1ccc(O)cc1)C1(O)C(=O)Nc2c(Cl)cc(Cl)cc21 (stereo not drawn) | > 77.6 µM (inactive) | 20.9 µM (inactive) | 17.1 µM (inactive) | 47.6 µM (inactive) | > 100 µM (inactive) | 49.3 µM (inactive) | 51.2 µM (inactive) | > 49.1 µM (inactive) | 24.6 µM (inactive) | 71.6 | > 92.5 µM (inactive) | > 100 µM (inactive) | 44.9 µM (inactive) | > 100 µM (inactive) | > 100 µM (inactive) | > 100 µM (inactive) | – | – | – | – |
| COC(=O)/C(C#N)=C1\CCc2ccccc21 | > 100 µM (inactive) | > 100 µM (inactive) | > 100 µM (inactive) | > 100 µM (inactive) | > 100 µM (inactive) | > 100 µM (inactive) | > 100 µM (inactive) | > 100 µM (inactive) | > 100 µM (inactive) | > 100 | > 100 µM (inactive) | > 100 µM (inactive) | > 100 µM (inactive) | > 100 µM (inactive) | > 100 µM (inactive) | > 100 µM (inactive) | – | – | – | – |
| CCOC(=O)C(=O)NNc1nc2c(s1)C(=O)c1ccccc1C2=O | 15.1 µM (inactive) | 1.47 µM (inactive) | 1.86 µM (inactive) | 3.65 µM (inactive) | 6.07 µM (inactive) | 7.46 µM (inactive) | 2.46 µM (inactive) | 22.8 µM (inactive) | 4.78 µM (inactive) | 2.54 | 18.1 µM (inactive) | 5.56 µM (inactive) | 1.87 µM (inactive) | 12.4 µM (inactive) | 14.9 µM (inactive) | 9.35 µM (inactive) | 2.87 µM (inactive) | 12 µM (inactive) | 1.8 µM (inactive) | 1.87 µM (inactive) |
